Data from patent publication US8859615B2, “Compounds, compositions and methods for reducing toxicity and treating or preventing diseases” (priority 2008, dated 2014).

Tests used:
[1] = tested on: human colon carcinoma HCT-116 xenografts; experiment: Compound D with Iso-Oxazole-Fludelone or Isodehydelone in nude mice bearing HCT-116 xenografts
[2] = tested on: human mammary carcinoma MX-1 xenografts; details: 5FU 50 mg/kg i.v. QD×5
[3] = tested on: carrageenan-induced paw edema; experiment: Carrageenan-induced paw edema; assay type: in vivo, CD mice; details: FIG. 17; 10, 15, 20 mg/kg iv injection
Procedure: FIG. 17 compares the anti-inflammatory effect of Compound (D), acetylsalicylic acid (aspirin), and LIDEX against carrageenan-induced paw edema in CD mice. […] The first vertical bar in each set is the control. The second vertical bar in each set is acetylsalicylic acid (200 mg/kg, oral). The third vertical bar in each set is LIDEX cream administered locally, the fourth vertical bar in each set is Compound (D) (10 mg/kg iv injection), the fifth vertical bar in each set is Compound (D) (15 mg/kg iv injection), and the sixth vertical bar in each set is Compound (D) (20 mg/kg iv injection). 1% Carrageenan (20 μL, i.m., injected directly into the paw of CD mice to produce paw edema) was administered at time=0. Compound (D) was administered at 24 hours prior to the carrageenan injection, 1 hour prior to the carrageenan injection, and 6 hours after the carrageenan injection. Acetylsalicylic acid was administered at 1 hour prior to the carrageenan injection, and 6 hours after the carrageenan injection. LIDEX cream was administered at 1 hour prior to the carrageenan injection, and 6 hours after the carrageenan injection. * means P<0.05 and ** means P<0.01.
The comparisons are made by comparing the volumes of the inflamed pedis area (induced by a injection of a 1% carageenan solution) at different time points after the initial carageenan injection. […]

C=C[C@H](O)C#CC#CC[C@H]1OC(C)(C)O[C@@H]1CCCCCCC [Compound (D)]
effect on tumor size and body-weight ([1]; 10 mg/kg, Q3D×3, Q6D×3, i.v., FIGS. 4A-C): reduced the tumor size and increased the subject body-weight | effect of oral administration on toxicity of isodehydelone ([1]; FIG. 15, Compound (D) orally): reduces the toxicity and lethality of isodehydelone alone | effect on therapeutic effect of Iso-oxazole-fludelone ([1]; FIGS. 4A, 4B): significantly enhances the therapeutic effect of Iso-oxazole-fludelone | effect of co-treatment on acute body-weight decrease due to 5FU [2]: did not significantly reduce | effect of co-treatment on therapeutic effect of 5FU [2]: not significantly increased | anti-inflammatory effect [3]: mild, slow on-set, anti-inflammatory effect
